Data taken from patent US20180344680A1, “COMPOSITIONS AND METHODS FOR TREATMENT, AMELIORATION, AND PREVENTION OF DIABETES-RELATED SKIN ULCERS” (THE ARIZONA BOARD OF REGENTS ON BEHALF OF THE UNIVERSITY OF …, priority 2015, published 2018).

Assays:
MMP9 = MMP9 expression in wound skin tissues of STZ mice (immunoblot, IHC); type: in vivo, mouse; conditions: immunoblot and IHC, day 14
Description: Diabetes mouse model and treatments. Nrf2^+/+ and Nrf2^-/- C57BL/6 mice were described previously (see, e.g., Jiang T, et al., Diabetes 59:850-860, 2010) and were housed and handled in accordance with the University of Arizona Institutional Animal Care policies. The STZ-induced diabetic model was previously described (see, e.g., Zheng H, et al., Diabetes 60:3055-3066, 2011) and only 8 week old male mice were included in this study. Briefly, three weeks after STZ injections, fasting glucose levels (FGL, 4 h fast) were measured using the AlphaTRAK system (Abbott Laboratory, North Chicago, Ill.) and mice with a FGL higher than or equal to 250 mg/dL were considered diabetic and included in the study (see, e.g., FIG. 2A and FIG. 3A for a detailed timeline). […] Gross wound closure was quantified by ImageJ software, and wound healing was expressed as the percentage of the original wound area that had healed. […] Morphology was assessed by hematoxylin and eosin (H&E) staining (Vector laboratory, Burlingame, Calif.). […] Protein concentration was measured using Quant-iT Protein Assay (Invitrogen) and 150 μg of protein were resolved by SDS-PAGE and immunoblotting analyses with the indicated antibodies.

HaCaT cells = assay: ROS measurement (DCF/flow cytometry) in HaCaT cells; type: cell-based, human; conditions: HG HaCaT cells; 5 μmol/L SF or 20 μmol/L CA every 24 h, 48 h
Experimental: Human immortalized keratinocytes HaCaT were obtained from the Arizona Cancer Center (see, […], et al., J Cell Biol 106:761-771, 1988). Cells were grown in Dulbecco's modified Eagle's medium (DMEM) containing low glucose (LG, 5.5 mmol/L) and 10% fetal bovine serum (FBS) in an incubator at 37° C. with 5% CO2. For the experiments, the cells were starved in serum-free LG DMEM for 24 h, then either maintained in LG DMEM or switched to high glucose (HG, 25 mmol/L) DMEM for 2 days (see, e.g., Zheng H, et al., Diabetes 60:3055-3066, 2011; Lan C C, et al., Br J Dermatol 159:1103-1115, 2008). For the treatments, the cells were dosed with 5 μmol/L SF or 20 μmol/L CA. siRNA transfections. […] ROS were measured in HaCaT cells using DCF. […] Then, 48 h later, the cells were switched into fresh medium containing 10 μg/mL DCF, incubated 30 min, and fluorescence intensity was measured by flow cytometry. The rate of cell proliferation was measured by two methods (see, […], et al., Proc Natl Acad Sci USA 108:1433-1438, 2011): 1) detection of Ki67 using indirect immunofluorescence as described previously (see, e.g., Lau A, et al., Mol Cell Biol 30:3275-3285, 2010); and 2) using the xCELLigence system (Roche). For this, 8000 HaCaT cells/well were seeded in LG or HG media, with or without an NRF2 activator, and cell growth was monitored for 72 h. […]

SMILES	MMP9 protein expression (MMP9)	ROS levels (HaCaT cells)
O=CC=Cc1ccccc1 [CA, Cinnamaldehyde]	restored the protein expression of MMP9 to levels comparable to the Con mice	reduced ROS levels significantly
C[S@@+]([O-])CCCCN=C=S [SF, L-sulforaphane]	restored the protein expression of MMP9 to levels comparable to the Con mice	reduced ROS levels significantly
